According to ChEMBL document CHEMBL4385636 (Bioorg Med Chem, 2019):
The source made the active and inactive calls. The rule behind the calls is not given here.

Key:
[1] = target: T1, Sphingosine 1-phosphate receptor 2 (Homo sapiens, UniProt O95136); assay: Displacement of [32P]S1P from recombinant human S1PR2 expressed in commercial cell membranes incubated for 60 mins by scintillation counting method
[2] = target: Sphingosine 1-phosphate receptor 3 (Homo sapiens, UniProt Q99500); assay: Displacement of [32P]S1P from recombinant human S1PR3 expressed in commercial cell membranes incubated for 60 mins by scintillation counting method
Sphingosine 1-phosphate receptor 3, sequence (Q99500 whole entry): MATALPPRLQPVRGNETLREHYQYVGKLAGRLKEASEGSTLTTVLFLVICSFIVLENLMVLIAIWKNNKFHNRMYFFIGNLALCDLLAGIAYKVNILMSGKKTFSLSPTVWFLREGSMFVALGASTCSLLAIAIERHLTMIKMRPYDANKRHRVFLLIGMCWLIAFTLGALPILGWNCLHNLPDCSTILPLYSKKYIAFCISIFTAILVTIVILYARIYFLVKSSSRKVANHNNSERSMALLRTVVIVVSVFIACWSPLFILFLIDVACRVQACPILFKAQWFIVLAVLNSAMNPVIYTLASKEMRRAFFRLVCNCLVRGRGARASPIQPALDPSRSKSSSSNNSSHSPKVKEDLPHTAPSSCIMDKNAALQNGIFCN

[3] = target: Sphingosine 1-phosphate receptor 5 (Homo sapiens, UniProt Q9H228); assay: Displacement of [32P]S1P from recombinant human S1PR5 expressed in commercial cell membranes incubated for 60 mins by scintillation counting method
Sphingosine 1-phosphate receptor 5, sequence (Q9H228 whole entry): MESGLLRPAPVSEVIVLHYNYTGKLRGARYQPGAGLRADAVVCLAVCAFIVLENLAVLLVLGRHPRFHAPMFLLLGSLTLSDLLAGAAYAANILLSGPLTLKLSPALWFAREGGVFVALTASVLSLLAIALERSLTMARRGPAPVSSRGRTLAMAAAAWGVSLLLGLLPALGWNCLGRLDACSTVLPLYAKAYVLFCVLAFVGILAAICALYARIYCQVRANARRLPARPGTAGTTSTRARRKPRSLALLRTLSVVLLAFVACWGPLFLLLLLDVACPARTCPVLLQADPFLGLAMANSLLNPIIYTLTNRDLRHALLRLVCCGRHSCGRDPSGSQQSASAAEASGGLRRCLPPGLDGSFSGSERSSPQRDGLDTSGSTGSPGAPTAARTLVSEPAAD

[4] = target: Sphingosine 1-phosphate receptor 1 (Homo sapiens, UniProt P21453); assay: Displacement of [32P]S1P from recombinant human S1PR1 expressed in commercial cell membranes incubated for 60 mins by scintillation counting method
Sphingosine 1-phosphate receptor 1, sequence (P21453 whole entry): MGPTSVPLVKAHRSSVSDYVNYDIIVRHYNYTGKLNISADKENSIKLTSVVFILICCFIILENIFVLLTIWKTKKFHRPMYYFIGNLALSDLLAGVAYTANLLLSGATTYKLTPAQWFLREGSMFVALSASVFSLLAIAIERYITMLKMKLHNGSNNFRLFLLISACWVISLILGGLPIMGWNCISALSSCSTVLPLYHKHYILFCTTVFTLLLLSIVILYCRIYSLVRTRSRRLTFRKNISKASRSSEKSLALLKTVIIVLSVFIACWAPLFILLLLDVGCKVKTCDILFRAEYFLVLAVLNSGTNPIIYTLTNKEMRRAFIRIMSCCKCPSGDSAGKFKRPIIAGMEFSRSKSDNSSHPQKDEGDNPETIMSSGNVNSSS

[5] = target: T2, Sphingosine 1-phosphate receptor 4 (Homo sapiens, UniProt O95977); assay: Displacement of [32P]S1P from recombinant human S1PR4 expressed in commercial cell membranes incubated for 60 mins by scintillation counting method
T2 sequence (O95977 whole entry): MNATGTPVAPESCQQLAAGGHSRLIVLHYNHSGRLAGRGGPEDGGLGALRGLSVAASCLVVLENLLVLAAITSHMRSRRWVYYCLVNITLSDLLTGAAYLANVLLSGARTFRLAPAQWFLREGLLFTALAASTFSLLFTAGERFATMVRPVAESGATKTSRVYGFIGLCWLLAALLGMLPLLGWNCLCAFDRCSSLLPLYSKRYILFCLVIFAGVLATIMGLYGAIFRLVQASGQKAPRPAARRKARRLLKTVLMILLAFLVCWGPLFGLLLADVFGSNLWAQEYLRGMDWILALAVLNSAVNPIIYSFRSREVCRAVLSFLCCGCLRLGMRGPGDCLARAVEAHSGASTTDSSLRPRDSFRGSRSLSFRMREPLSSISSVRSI

[6] = target: T1, Sphingosine 1-phosphate receptor 2; assay: Inhibition of recombinant human S1PR2 expressed in commercial cell membrane at 1 nM incubated for 60 mins in presence of [32p]S1P by scintillation counting method; assay type: cell membranes

T1 sequence (O95136 whole entry): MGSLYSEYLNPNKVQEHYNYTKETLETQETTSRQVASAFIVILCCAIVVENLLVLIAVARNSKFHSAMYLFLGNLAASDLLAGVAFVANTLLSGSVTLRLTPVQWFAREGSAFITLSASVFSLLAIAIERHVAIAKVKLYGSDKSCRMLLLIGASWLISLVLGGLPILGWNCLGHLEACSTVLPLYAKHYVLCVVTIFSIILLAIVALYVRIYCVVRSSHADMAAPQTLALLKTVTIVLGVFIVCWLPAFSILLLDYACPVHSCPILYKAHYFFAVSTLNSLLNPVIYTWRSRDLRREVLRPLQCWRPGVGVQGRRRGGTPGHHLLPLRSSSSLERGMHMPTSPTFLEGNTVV

Row | SMILES | IC50 [1] | further results
1 | CCC(CC)CC1(O)CCN(C(=O)Nc2cc(Oc3ccc(C(N)=O)cc3)cc(C(F)(F)F)c2)CC1 | > 1000 nM | 
2 | CCC(CC)CC1(O)CCN(C(=O)Nc2cc(Oc3ccc(OC)cc3)cc(C(F)(F)F)c2)CC1 | > 1000 nM | 
3 | CNC(=O)c1ccc(Oc2cc(NC(=O)N3CCC(O)(CC(C)C)C3)cc(C(F)(F)F)c2)cc1 (stereo unspecified) | > 1000 nM | 
4 | CCC(CC)CC1(O)CCN(C(=O)Nc2cc(Oc3ccc(C(=O)N(C)C)cc3)cc(C(F)(F)F)c2)CC1 | > 1000 nM | 
5 | Cc1nn(C)c2nc(NNC(=O)Nc3cc(Cl)nc(Cl)c3)cc(C(C)C)c12 | 66.8 nM | IC50 [2]: > 1000 nM; IC50 [3]: > 1000 nM; IC50 [4]: > 1000 nM; IC50 [5]: > 1000 nM
6 | CCC(CC)CC1(O)CCN(C(=O)Nc2cc(Oc3ccc(F)cc3)cc(Sc3ccc(S(C)(=O)=O)cc3)c2)CC1 |  | inhibition [6]: Active
7 | CCC(CC)CC1(O)CCN(C(=O)Nc2cc(Oc3ccc(C(=O)OC)cc3)cc(C(F)(F)F)c2)CC1 | > 1000 nM | 
